In patent publication EP0813412B1, “GEL FOR THE LOCAL HORMONOTHERAPY OF VAGINAL DRYNESS” (priority 1995, dated 1997):

Key:
[1] = system: récepteurs à haute affinité pour l'estradiol au niveau de l'épithélium vaginal; conditions: estrogen receptors; cited from earlier work
[2] = Clinical trial, repeated vaginal application for 13 days: clinical and biological tolerance; type: in vivo, femme; conditions: 10 µg vaginal, repeated for 13 days
Text: Ces événements d'intensité mineure n'ont pas empêché la poursuite de l'étude. La tolérance biologique a été excellente. Aucune anomalie ayant une signification clinique n'a été rapportée.

[3] = type: in vivo, femme
Description: Une première solution consiste à réduire la teneur en principe actif, typiquement à des doses de 5 µg ou même 2,5 µg par application unitaire.

[4] = 10 µg, free micronised form in gel, single dose

SMILES	activity profile (agonist / antagonist) [1]	tolérance biologique [2]	tolérance clinique ([2]; sixteen subjects, free micronised form in gel)	effets indésirables (céphalées, épisodes de vomissements et bouffées de chaleur) ([2]; sixteen subjects, minor intensity)	surface sous la courbe ([3]; 10 µg vaginal gel, steady state)	pic plasmatique d'estradiol ([3]; 10 µg vaginal gel, steady state compared with first application)	concentration plasmatique maximale du pic [3, 4]	time of the plasma peak (pic plasmatique) [3, 4]
C[C@]12CC[C@@H]3c4ccc(O)cc4CC[C@H]3[C@@H]1C[C@@H](O)[C@@H]2O [estriol]	agoniste partiel, voire d'antagoniste							
C[C@]12CC[C@@H]3c4ccc(O)cc4CC[C@H]3[C@@H]1CC[C@@H]2O [17β-estradiol]		excellente	excellente pour treize sujets sur seize	Trois sujets ont signalé des effets indésirables	comparable à celle obtenue après la première application	tend à être plus faible et retardé	du même ordre que le taux physiologique moyen observés la première semaine de la phase folliculaire chez la femme fertile	une heure environ
